{
  "source": "patent US20110207807A1",
  "about": "“NEW USE FOR HOMOISOFLAVONE OR A SALT THEREOF” (Catholic University Industry Academy Cooperation Foundation, priority 2008, published 2011)",
  "key": {"COX-2": {"test_system": "COX-2", "assay": "COX-2 expression induced by UV in human keratinocytes (Western blot)", "type": "cell-based", "conditions": "HaCaT cells, 1 μg/mL, UV 100 J/m^2, 16 hours, vs UV only (FIG. 2a)", "experimental": "In order to investigate the effect of homoisoflavanone on COX-2 expression induced by UV in human keratinocytes, HaCaT cells (5×10^5 cells) were inoculated on a 60-mm culture dish and cultured for 24 hours in DMEM containing 10% FBS.\nThen, the cells were starved by culturing for 24 hours in DMEM containing 1% FBS. Then, after treating with homoisoflavanone at 1 μg/mL for 1 hour, the cells were washed 3 times with PBS and irradiated with UV at 100 J/m^2 to induce COX-2 expression. Immediately after the UV radiation, the cells were washed again with PBS and further cultured for 16 hours in DMEM containing 1% FBS, while treating with homoisoflavanone at the same concentration.\nThereafter, Western blotting was performed as follows in order to measure the degree of COX-2 expression in the cultured cells. The cells of each group were lysed using RIPA buffer containing 2 mM EDTA, 137 mM NaCl, 20 mM Tris-HCl (pH, 8.0), 1 mM sodium vanadate, 10 mM NaF, 1 mM phenylmethanesulfonyl fluoride (PMSF), 1% Triton X-100, 10% glycerol and a protease inhibitor cocktail, and subjected to SDS-PAGE electrophoresis on 10% acrylamide gel to separate proteins, which were then transferred to a nylon membrane and separated using goat anti-COX-2 antibody (SantaCruz, USA) and anti-goat IgG-horse radish peroxidase (HRP) conjugation antibody (1:10000, Zymed) as secondary antibody. […]"}, "NF-κB": {"test_system": "NF-κB", "assay": "UV-induced NF-κB nuclear translocation in HaCaT cells (immunocytochemical staining)", "type": "cell-based, human", "conditions": "1 μg/mL, UV 100 J/m^2, 4 hours (FIG. 2e)", "experimental": "In order to investigate whether the transcription factor NF-κB is activated, human keratinocytes HaCaT cells were immunocytochemically stained as follows.\nAfter inoculating the cells on a 14-mm culture slide, the cells were cultured in DMEM containing 10% FBS for 24 hour. Then, the cells were starved by culturing for 24 hours in DMEM containing 1% FBS. Then, after treating with homoisoflavanone at 1 μg/mL for 1 hour, the cells were washed 3 times with PBS and irradiated with UV at 100 J/m^2. Immediately after the UV radiation, the cells were washed again with PBS and further cultured for 4 hours in DMEM containing 1% FBS while treating with homoisoflavanone at the same concentration. Then, the cells were fixed with methanol for 5 minutes and then subjected to immunocytochemical staining.\nThe fixed cells were blocked with 10% normal goat serum and then washed 3 times with PBS. Then, after fluorescence staining NF-κB using rabbit anti-NF-κB antibody (SantaCruz, USA) and Alexa 488-conjugated anti-rabbit IgG secondary antibody (Invitrogen, USA), counter staining was carried out using Hoechst (Sigma, St. Louis, Mo.)."}, "IL-6": {"test_system": "IL-6", "assay": "IL-6 mRNA expression induced by PMA and A23187 in HMC-1 (real-time PCR)", "type": "cell-based, human", "conditions": "HMC-1, 2 μg/mL, 50 nM PMA + 1 μM A23187, 5 hours (FIG. 6c)", "experimental": "(§1) In order to investigate the effect of homoisoflavanone on the release of pro-inflammatory cytokines induced by phorbol 12-myristate 13-acetate and A23187 in HMC-1, 5×10^5 HMC-1 cells were inoculated on a 60-mm culture dish and cultured in IMDM containing 10% FBS for 48 hours. Then, after treating with homoisoflavanone at 2 μg/mL, the cells were treated with 50 nM phorbol 12-myristate 13-acetate and 1 μM A23187 to induce release of pro-inflammatory cytokines, and then further cultured for 5 hours.\n(§2) After extracting RNA from the cells of each test group using TRIzol, cDNA was prepared by carrying out PCR using the RNA as a template. Then, the mRNA expression of IL-6 and IL-8 was measured through real-time PCR using the cDNA as template and using commercially available IL-6 and IL-8 primers. The expression level of the pro-inflammatory cytokines was compared relative to the non-treated group."}, "IL-8": {"test_system": "IL-8", "assay": "IL-8 mRNA expression induced by PMA and A23187 in HMC-1 (real-time PCR)", "type": "cell-based, human", "conditions": "HMC-1, 2 μg/mL, 50 nM PMA + 1 μM A23187, 5 hours (FIG. 6d)", "experimental": "as §1, §2"}, "HMC-1 cells": {"test_system": "HMC-1 cells", "assay": "Degranulation induced by PMA and A23187 in HMC-1 (transmission electron microscopy)", "type": "cell-based, human", "conditions": "HMC-1, 2 μg/mL, 50 nM PMA + 1 μM A23187, 6 hours (FIG. 8a)", "experimental": "In order to investigate the effect of homoisoflavanone on COX-2 expression induced by phorbol 12-myristate 13-acetate and A23187 in HMC-1, 1×10^5 HMC-1 cells were inoculated on a 6-well plate and cultured in IMDM containing 10% FBS for 48 hours. Then, after treating with homoisoflavanone at 2 μg/mL for 1 hour, the cells were treated with 50 nM phorbol 12-myristate 13-acetate and 1 μM A23187 to induce COX-2 expression, and then further cultured for 6 hours. Then, the cells were fixed with 2.5% glutaraldehyde and frozen with liquid nitrogen. The cells were detached from the plate by applying heat, sliced into […], attached on grids, and observed with a transmission electron microscope (TEM)."}, "T cells": {"test_system": "T cells", "assay": "Mixed lymphocyte reaction (MLR), T cell proliferation (3H-thymidine)", "type": "cell-based, mouse", "conditions": "one-way MLR, BALB/C and C57B/C splenocytes, concentration-dependent (FIG. 9)", "experimental": "Mixed lymphocyte reaction (MLR) was carried out in order to investigate the inhibitory effect of homoisoflavanone against T cell proliferation. When mouse immune cells of different MHC classes are cultured as mixed with each other, the T cells recognize those of different MHC class as antigens and thus proliferate. One-way MLR was performed as follows. Following excision of spleens from BALB/C and C57B/C mice, the cells were individualized and red blood cells were lysed. After irradiation of 25 Gy γ-rays to BALB/C splenocytes to inactivate the BALB/C T cells, the BALB/C and C57B/C splenocytes (5×10^5 and 2×10^5 cells each) were mixed in a U-bottom 96-well plate. After treating with homoisoflavanone, the cells were incubated for 56 hours in an incubator of 5% CO2 and 37° C. Then, after further adding ^3[H]-thymidine (0.5) to each well, the cells were further incubated for 16 hours. Thereafter, the cells of each well were collected on filter paper and then put in a vial. After adding a scintillation solution (2 mL), counts per minute (CPM) was measured using a β-counter."}},
  "data": [
    {"smiles": "COc1ccc(CC2COc3cc(O)cc(O)c3C2=O)cc1O", "note": "(stereo not drawn) [homoisoflavanone]", "values": [
      {"measurement": "COX-2 expression induced by UV", "setting": "COX-2", "value": "decreased"},
      {"measurement": "migration of NF-κB into the nucleus induced by UV radiation", "setting": "NF-κB", "value": "inhibits"},
      {"measurement": "inhibition of release (mRNA expression) of IL-6", "setting": "IL-6", "value": 50, "unit": "%"},
      {"measurement": "inhibition of release (mRNA expression) of IL-8", "setting": "IL-8", "value": 50, "unit": "%"},
      {"measurement": "release of intracellular substances (degranulation, TEM)", "setting": "HMC-1 cells", "value": "inhibited"},
      {"measurement": "concentrations at which proliferation of T cells was effectively inhibited", "setting": "T cells", "value": "≥ 0.25", "unit": "µg/mL"}
    ]}
  ]
}
